Earlier results in PMC9276671, “A first-in-human Phase I dose-escalation trial of the novel therapeutic peptide, ALM201, demonstrates a favourable safety profile in unselected patients with ovarian cancer and other advanced solid tumours” (British Journal of Cancer, 2022).

Key:
cell cycle = conditions: protocol Table 2 (IC50 (nM)); ref Investigator brochure (IB); cited from earlier work
Source text: (§1) ALM201 also had no effect on cytok ...

cell viability = conditions: protocol Table 2; ref Investigator brochure (IB); cited from earlier work
Source text: as §1

tubulin = system: tubulin; set-up: method as in Investigator brochure (IB); conditions: ref Investigator brochure (IB), cited from earlier work; for IC50: protocol Table 2, read-out: Tubulin polymerisation IC50; for Tubulin polymerisation IC50: protocol Table 3
[1] = system: HMEC-1, a human vascular endothelial cell-line; conditions: protocol Table 3; ref Investigator brochure (IB); read-out: Wound scrape IC50; cited from earlier work
Source text: page 37: Almac Discovery Confidential There are five main histological subtypes of ovarian cancer differing in tissue of origin, stage of presentation, sensitivity to chemotherapy, survival and driver genetic mutations. The most aggressive of these subtypes are the high grade serous tumours. […] ALM201 also had no effect on cytok ...

HMEC-1 = conditions: protocol Table 3; ref Investigator brochure (IB); read-out: Tube formation IC50; cited from earlier work
Source text: as §1

proliferation = conditions: protocol Table 3; ref Investigator brochure (IB); cited from earlier work
Source text: as §1

Row | Compound | Cell cycle arrest (cell cycle) | IC50 (cell viability) | IC50 (tubulin) | IC50 [1] | IC50 (HMEC-1) | IC50 (proliferation) | Tubulin polymerisation IC50 (tubulin)
1 | COc1ccc(C[C@@H](O)c2cc(OC)c(OC)c(OC)c2)cc1O [Combretastatin] | Yes | 0.2 nM | 360 nM | – | – | – | –
2 | CCN(CC)CCNC(=O)c1c(C)[nH]c(/C=C2\C(=O)Nc3ccc(F)cc32)c1C [Sunitinib] | – | – | – | 8.9 nM | 4.4 nM | […] | No effect
3 | CC[C@]1(O)C[C@@H]2CN(CCc3c([nH]c4ccccc34)[C@@](C(=O)OC)(c3cc4c(cc3OC)N(C)[C@H]3[C@@](O)(C(=O)OC)[C@H](OC(C)=O)[C@]5(CC)C=CCN6CC[C@]43[C@@H]65)C2)C1 [Vinblastine] | Yes | 0.02 nM | […] | – | – | – | –
4 | Bevacizumab | – | – | – | 59 nM | 2400 nM | 158 nM | No effect
